Structures are written as SMILES.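 Results reflect a 48-hour exposure of cells in 96-well plates to compound at five concentrations. GI50 = concentration required for 50% inhibition of growth. Definition used: TGI = concentration required for complete inhibition of growth.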

The text below walks through data of PubChem BioAssay (NCI).

Some test systems named below: OVCAR-8 ovarian; HL-60(TB) leukemia; 786-0 renal; CAKI-1 renal; HOP-92 NSCLC; RPMI-8226 leukemia; ACHN renal; MALME-3M melanoma; OVCAR-4 ovarian; SR leukemia.
What all share (test): NCI anticancer screen, dose series, 48 h

On to `CC1CCC2N(C1)CC1C3(O)CC45OC6(O)C(O)CCC4(C)C6CCC5C3(O)CC(O)C1(O)C2(C)O` (stereo not given), for which the TGI in the assay on OVCAR-8 ovarian, in the assay on HL-60(TB) leukemia, in the assay on 786-0 renal, with CAKI-1 renal, with HOP-92 NSCLC and with RPMI-8226 leukemia was above 100 µM in each case. The TGI in the assay on ACHN renal, in the assay with MALME-3M melanoma, in the assay on OVCAR-4 ovarian and with SR leukemia was above 100 µM each time.

As for `CCN(CC)CCN(C(=O)C(C)(C)C)c1ccccc1N`, the TGI with OVCAR-8 ovarian, in the assay on HL-60(TB) leukemia, with 786-0 renal, with CAKI-1 renal, in the assay with HOP-92 NSCLC and with RPMI-8226 leukemia was above 100 µM each time. Also, the TGI in the assay on ACHN renal, with MALME-3M melanoma, in the assay with OVCAR-4 ovarian and in the assay on SR leukemia was above 100 µM each time.

On to `COc1cnc2cc(C(=O)O)c3ccccc3c2c1`, for which the TGI with OVCAR-8 ovarian, in the assay on HL-60(TB) leukemia, in the assay with 786-0 renal, with CAKI-1 renal, in the assay on HOP-92 NSCLC and in the assay with RPMI-8226 leukemia was above 100 µM each time. Also, the TGI with ACHN renal, with MALME-3M melanoma, in the assay on OVCAR-4 ovarian and in the assay on SR leukemia was above 100 µM throughout.

Turning to `C[N+](C)(C)CC1CCCC(C[N+](C)(C)C)C1O` (stereo not given), the TGI in the assay with OVCAR-8 ovarian, in the assay on HL-60(TB) leukemia, in the assay on 786-0 renal, in the assay with CAKI-1 renal, in the assay on HOP-92 NSCLC and in the assay on RPMI-8226 leukemia was above 100 µM throughout. Besides, the TGI in the assay on ACHN renal, in the assay with MALME-3M melanoma, with OVCAR-4 ovarian and in the assay on SR leukemia was above 100 µM throughout.

As to `COc1ccc(CCc2cc(OC)c(OC)c(OC)c2)cc1`, the TGI amounted to 32.2 µM with OVCAR-8 ovarian; 0.296 µM with HL-60(TB) leukemia; 69.1 µM in the assay with 786-0 renal; 20.4 µM in the assay with CAKI-1 renal; 62.7 µM with HOP-92 NSCLC; 17.1 µM in the assay with RPMI-8226 leukemia. Also, the TGI in the assay with ACHN renal was 76.9 µM; in the assay on MALME-3M melanoma it was 39.1 µM; with OVCAR-4 ovarian, above 92.5 µM; in the assay with SR leukemia, 0.78 µM.

Regarding `Oc1ccc(Cl)cc1Cc1cc(Cl)ccc1O`, the GI50 was 2.63 µM in the assay with OVCAR-8 ovarian; 2.42 µM in the assay on HL-60(TB) leukemia; 3.85 µM with 786-0 renal; 2.8 µM in the assay with CAKI-1 renal; 0.801 µM with HOP-92 NSCLC; 1.53 µM with RPMI-8226 leukemia. The GI50 in the assay on ACHN renal is 3.33 µM; in the assay on MALME-3M melanoma, 2.55 µM; in the assay on OVCAR-4 ovarian, 2.84 µM; with SR leukemia it was 4.45 µM. Moreover, the TGI with OVCAR-8 ovarian came out at 8.97 µM; in the assay on HL-60(TB) leukemia, 6.05 µM; in the assay on 786-0 renal, 14.3 µM; in the assay on CAKI-1 renal, 9.38 µM; with HOP-92 NSCLC, 3.58 µM; with RPMI-8226 leukemia, 5.1 µM. The TGI with ACHN renal came to 11.3 µM; in the assay with MALME-3M melanoma, 6.35 µM; in the assay on OVCAR-4 ovarian, 11.9 µM; in the assay with SR leukemia, 35.8 µM.

`COC(=O)/C(=N/NC(N)=O)C(C(=O)OC)C(=O)C(=O)Nc1ccc(Cl)cc1` (stereo not given): the TGI in the assay on OVCAR-8 ovarian, in the assay with HL-60(TB) leukemia, in the assay on 786-0 renal, with CAKI-1 renal, with HOP-92 NSCLC and in the assay on RPMI-8226 leukemia was above 100 µM in each case. The TGI is above 100 µM in the assay on ACHN renal, above 100 µM in the assay on MALME-3M melanoma, above 100 µM in the assay with OVCAR-4 ovarian and 46.5 µM in the assay on SR leukemia.

With `O=c1[nH]c2ccccc2n1-c1n[nH]c2ccccc12`, the GI50 is 35.3 µM in the assay on OVCAR-8 ovarian; 12.1 µM in the assay with HL-60(TB) leukemia; 46.6 µM in the assay on 786-0 renal; 25.3 µM in the assay on CAKI-1 renal; 4.5 µM in the assay on HOP-92 NSCLC; 17.6 µM in the assay on RPMI-8226 leukemia. Moreover, the GI50 with ACHN renal was 29.9 µM; in the assay with MALME-3M melanoma, 26.3 µM; with OVCAR-4 ovarian, 41.3 µM; with SR leukemia it was 18.1 µM. Moreover, the TGI in the assay with OVCAR-8 ovarian was above 100 µM; in the assay on HL-60(TB) leukemia, 43.2 µM; in the assay with 786-0 renal it was above 100 µM; in the assay on CAKI-1 renal, above 100 µM; in the assay with HOP-92 NSCLC, 58.2 µM; with RPMI-8226 leukemia, 64.6 µM. Also, the TGI with ACHN renal is above 100 µM; in the assay with MALME-3M melanoma, 82.9 µM; in the assay with OVCAR-4 ovarian it was above 100 µM; in the assay with SR leukemia, 73.1 µM.

With `COc1cc2cc3c4c(cc(OC)c(OC)c4c2cc1OC)CCN3C(=O)CCC(=O)NCCCN(C)C`, the TGI in the assay on OVCAR-8 ovarian is above 100 µM; with HL-60(TB) leukemia it was 56.9 µM; in the assay with 786-0 renal, above 100 µM; in the assay with CAKI-1 renal it was above 100 µM; in the assay with HOP-92 NSCLC it was 64.6 µM; in the assay on RPMI-8226 leukemia, above 100 µM. In addition, the TGI with ACHN renal was above 100 µM; with MALME-3M melanoma it was above 100 µM; in the assay with OVCAR-4 ovarian it was above 100 µM; in the assay with SR leukemia, 62 µM.

Take `O=C(Nc1ccccc1C(=O)N/N=C(\c1ccccc1)c1ccccn1)c1ccc(F)cc1`: the GI50 in the assay with OVCAR-8 ovarian was 0.31 µM; with HL-60(TB) leukemia, 0.297 µM; with 786-0 renal, 0.281 µM; in the assay on CAKI-1 renal, 0.42 µM; in the assay with HOP-92 NSCLC, 1.42 µM; in the assay on RPMI-8226 leukemia, 0.51 µM. In addition, the GI50 was 0.127 µM in the assay with ACHN renal, 0.767 µM in the assay on MALME-3M melanoma, 0.207 µM in the assay on OVCAR-4 ovarian and 0.142 µM with SR leukemia. The TGI in the assay on OVCAR-8 ovarian is above 100 µM; in the assay with HL-60(TB) leukemia, 2.01 µM; with 786-0 renal, 8.44 µM; in the assay on CAKI-1 renal, above 100 µM; with HOP-92 NSCLC it was above 100 µM; in the assay with RPMI-8226 leukemia, above 100 µM. For the same compound, the TGI in the assay on MALME-3M melanoma, in the assay on OVCAR-4 ovarian and in the assay on SR leukemia was above 100 µM in each case.

Take `Nc1ccc(S(=O)(=O)Nc2cnc3c(Cl)cccc3n2)cc1`: the GI50 in the assay with OVCAR-8 ovarian was 40.1 µM; with HL-60(TB) leukemia it was above 75 µM; with CAKI-1 renal it was 99.2 µM; in the assay on RPMI-8226 leukemia, above 95.1 µM; with OVCAR-4 ovarian, above 78.1 µM; in the assay on SR leukemia, 23.1 µM. For the same compound, the TGI in the assay on OVCAR-8 ovarian is above 750 µM; in the assay with HL-60(TB) leukemia, 637 µM; with 786-0 renal, above 750 µM; in the assay on CAKI-1 renal, above 698 µM; in the assay with HOP-92 NSCLC it was 544 µM; in the assay with RPMI-8226 leukemia, above 705 µM. Moreover, the TGI with ACHN renal was above 750 µM; in the assay with MALME-3M melanoma, above 750 µM; with OVCAR-4 ovarian, above 672 µM; in the assay with SR leukemia it was above 750 µM.
